Consider three compounds from PubChem BioAssay AID1963841 (Molecular Pharmacology Branch, DTP, NCI, 2024).

This assay has as its system 439559-082-T-J2-PDC spheroid viability. Nature of the assay: Anticancer human tumor 439559-082-T-J2-PDC patient-derived colon adenocarcinoma cell line growth inhibition [POLQ]. Conditions: spheroids with HUVEC and MSC; for viability, T/C: stronger effect = lower value. Here is the method:
Multicellular complex tumor spheroid response to Polymerase (POL) inhibitors (novobiocin, ART-558, RP6685) in combination with a variety of drugs and investigational agents in selected tumor cell lines
The POL inhibitors (novobiocin, ART-558, and RP6685) were evaluated both individually and in combination with standard of care and investigational anticancer small molecules within a complex spheroid model of solid tumors. . Complex spheroids include a stromal component modeled by human endothelial cells (HUVEC) and fibroblasts modeled by human mesenchymal stem cells (MSCs). The concentration ranges selected for each drug and investigational agent were based upon clinically achievable concentrations if the clinical Cmax of the agent was known.
Compounds. The drugs and investigational agents: novobiocin (NSC847541), ART-558 (NSC835418), RP-6685 (NSC848927), peposertib (NSC802822), ceralasertib (NSC780249), elimusertib (NSC800525), camonsertib (NSC841442), AZD-1390 (NSC803789), olaparib (NSC753686), talazoparib (NSC767125), rucaparib (NSC756644), sotorasib (NSC818433), MRTX-1133 (NSC836407), SN-38 (NSC673596), topotecan (NSC609699), epotoside (NSC141540), doxorubicin (NSC123127), gemcitabine (NSC613327), 5-fluorouracil (NSC19893), paclitaxel (NSC125973), vemurafenib (NSC761431), MSA-2 (NSC828583), SN-011 (NSC837082), adavosertib (NSC754352), prexasertib (NSC758257), carboplatin (NSC241240) and oxaliplatin (NSC266046), were obtained from the National Cancer Institute (NCI) Developmental Therapeutics Program Chemical Repository (21). The FDA-approved anticancer drug set is available from the Developmental Therapeutics Program at https://dtp.cancer.gov/organization/dscb/obtaining/. […] The stock solutions were prepared in dimethyl sulfoxide (DMSO, Sigma-Aldrich, St. Louis, MO, cat. D2650), except for the platinum compounds which were prepared in saline (Quality Biological, Gaithersburg, MD, cat. 114-055-101), at 800-fold the tested concentration and stored at -70 degrees C prior to their use. All drugs and investigational agents were tested over a range starting from a high concentration at or near the clinical Cmax and decreasing in half-log increments. If the clinical Cmax for an agent had not been determined, the highest concentration tested was 10 microM, except for SN-38, which was tested at a high concentration of 1 microM.
Cell Culture. All cells were maintained in an incubator at 37 degrees C and 5% CO2 with 95% humidity. The PDC lines were cultured according to standard operating procedures established by the NCI PDMR (https://pdmr.cancer.gov). Table 3 of the manuscript, lists the cell lines along with the number of the three cell types plated to form the mct-spheroids and media for tumor cell growth. After thawing, all PDC lines, except 997537-175-T-J1-PDC and 415267-285-R-J2-PDC, were cultured in Matrigel-coated flasks prepared with a working solution of 1X Ham's F-12 nutrient mix, without supplementation (Thermo Fisher Scientific, cat. 11765054), 100 U/mL penicillin-streptomycin (Thermo Fisher Scientific, cat. 15140122), and 2.5% Matrigel (Corning Inc., Corning, NY, cat. 354248) for the first three passages. The two PDC lines 997537-175-T-J1-PDC and 415267-285-R-J2-PDC were cultured on uncoated flasks. The 857933-349-R-J2-PDC line was cultured in 6C/Colon 1B media containing advanced DMEM/F-12 (Thermo Fisher Scientific, cat. 12634028), 10 mM HEPES (Thermo Fisher Scientific, cat. 15630080), 1X GlutaMAX supplement (Thermo Fisher Scientific, cat. 35050061), 0.1 mg/mL primocin (InvivoGen, San Diego, CA, cat. ant-pm-2), 10% defined fetal bovine serum, heat inactivated (HyClone Laboratories Inc., Logan, UT, cat. SH30070.03HI), 50% L-WRN conditioned media (ATCC, cat. CRL-3276), 1.25 mM N-Acetyl-L-cysteine (Sigma-Aldrich, cat. A9165), 10 mM nicotinamide (Sigma-Aldrich, cat. N0636), 1X B-27 supplement (Thermo Fisher Scientific, cat. 17504044), 1X N-2 supplement (Thermo Fisher Scientific, cat. […]

Where “and” joins values, the source holds several entries; their conditions need not be identical. Equal values may be shown once. Where only a bound is given, the exact number is not on record here.
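Also: spheroids exposed to compounds for seven days before readout.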
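For viability, T/C in this document: 100% = DMSO vehicle control viability.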

`Cn1ncnc1[C@H]1c2n[nH]c(=O)c3cc(F)cc(c23)N[C@@H]1c1ccc(F)cc1`: the viability, T/C (compound 0.000316 µM) was 101% and 102% and 94.5%; the viability, T/C (compound 0.001 µM) was 100% (2×) and 86.2%; the viability, T/C (compound 0.00316 µM) is 94.4% and 97.9% and 97.8%; the viability, T/C (compound 0.01 µM) is 96.7% and 93.2% and 100%; the viability, T/C (compound 0.0316 µM) is 97.2% and 98.5% and 107%; the viability, T/C (compound 0.1 µM) was 97.3% and 95.7% and 88.3%. In addition, the IC50 (curve of compound) was greater than 0.1 µM.

As to `O=c1[nH]cc(F)c(=O)[nH]1`, the viability, T/C by setting is: (compound 0.0316 µM) 94.6% and 117% and 96.9%; (compound 0.1 µM) 95% and 114% and 94.2%; (compound 0.316 µM) 83.6% and 86.3% and 81%; (compound 1 µM) 76.2% and 90.7% and 73%; (compound 3.16 µM) 71.1% and 87% and 72.8%; (compound 10 µM) 68.4% and 78.9% and 71.5%. The IC50 (curve of compound) is greater than 10 µM.

`O=C(Nc1ccc(O)c(NS(=O)(=O)c2ccc(F)cc2)c1)c1ccc(-c2ccccc2)cc1` + COC1C(OC(N)=O)C(O)C(Oc2ccc3c(O)c(NC(=O)c4ccc(O)c(CC=C(C)C)c4)c(=O)oc3c2C)OC1(C)C: the IC50 was greater than 10 µM (curve of first compound, second compound 0.0316 µM); greater than 10 µM (curve of first compound, second compound 0.1 µM); greater than 10 µM (curve of first compound, second compound 0.316 µM); greater than 10 µM (curve of first compound, second compound 1 µM); greater than 10 µM (curve of first compound, second compound 3.16 µM); greater than 10 µM (curve of first compound, second compound 10 µM). Also, the viability, T/C runs as follows: (second compound 0.0316 µM, first compound 0.0316 µM) 93.1%; (second compound 0.0316 µM, first compound 0.1 µM) 94.8%; (second compound 0.0316 µM, first compound 0.316 µM) 94.1%; (second compound 0.0316 µM, first compound 1 µM) 97.9%; (second compound 0.0316 µM, first compound 3.16 µM) 106%; (second compound 0.0316 µM, first compound 10 µM) 101%. In addition, the viability, T/C reads like this: (second compound 0.1 µM, first compound 0.0316 µM) 98.8%; (second compound 0.1 µM, first compound 0.1 µM) 99.4%; (second compound 0.1 µM, first compound 0.316 µM) 102%; (second compound 0.1 µM, first compound 1 µM) 107%; (second compound 0.1 µM, first compound 3.16 µM) 103%; (second compound 0.1 µM, first compound 10 µM) 97.3%. In addition, the viability, T/C reads like this: (second compound 0.316 µM, first compound 0.0316 µM) 99.3%; (second compound 0.316 µM, first compound 0.1 µM) 99.9%; (second compound 0.316 µM, first compound 0.316 µM) 99.8%; (second compound 0.316 µM, first compound 1 µM) 97%; (second compound 0.316 µM, first compound 3.16 µM) 104%; (second compound 0.316 µM, first compound 10 µM) 102%. The viability, T/C stood at 102% (second compound 1 µM, first compound 0.0316 µM); 98.4% (second compound 1 µM, first compound 0.1 µM); 93.5% (second compound 1 µM, first compound 0.316 µM); 103% (second compound 1 µM, first compound 1 µM); 104% (second compound 1 µM, first compound 3.16 µM); 89.8% (second compound 1 µM, first compound 10 µM). In addition, the viability, T/C is, setting by setting: (second compound 3.16 µM, first compound 0.0316 µM) 107%; (second compound 3.16 µM, first compound 0.1 µM) 93.2%; (second compound 3.16 µM, first compound 0.316 µM) 92.3%; (second compound 3.16 µM, first compound 1 µM) 96.5%; (second compound 3.16 µM, first compound 3.16 µM) 99.8%; (second compound 3.16 µM, first compound 10 µM) 98.3%. The viability, T/C is 97.2% (second compound 10 µM, first compound 0.0316 µM); 98.7% (second compound 10 µM, first compound 0.1 µM); 102% (second compound 10 µM, first compound 0.316 µM); 103% (second compound 10 µM, first compound 1 µM); 101% (second compound 10 µM, first compound 3.16 µM); 104% (second compound 10 µM, first compound 10 µM).
